According to PubChem BioAssay (NCI):
“And” between values parts separate entries of the source, which are not always exact repeats. Equal entries are not always repeated.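 Grown in 96-well plates, cells were treated for 48 hours with each compound at five concentrations. Insufficient inhibition: endpoint recorded as highest concentration tested. Abbreviation: GI50, concentration required for 50% inhibition of growth. TGI marks complete inhibition of growth.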

Columns and labels:
Test in all cases: NCI tumour cell line growth inhibition, 48 h
DMS 114 small cell lung = tested on: DMS 114 small cell lung
DMS 273 small cell lung = tested on: DMS 273 small cell lung
M19-MEL melanoma = tested on: M19-MEL melanoma
DLD-1 colon = tested on: DLD-1 colon
SNB-78 CNS = tested on: SNB-78 CNS
LXFL 529 NSCLC = tested on: LXFL 529 NSCLC
XF 498 CNS = tested on: XF 498 CNS
RXF-631 renal = tested on: RXF-631 renal
MDA-N = tested on: MDA-N
P388/ADR leukemia = tested on: P388/ADR leukemia
P388 leukemia = tested on: P388 leukemia
SN12K1 renal = tested on: SN12K1 renal

| SMILES | TGI (DMS 114 small cell lung) | TGI (DMS 273 small cell lung) | TGI (M19-MEL melanoma) | TGI (DLD-1 colon) | TGI (SNB-78 CNS) | TGI (LXFL 529 NSCLC) | TGI (XF 498 CNS) | TGI (RXF-631 renal) | other results |
| --- | --- | --- | --- | --- | --- | --- | --- | --- | --- |
| CCOc1ccc(/C=C/C(=O)c2sc(NNC(C)=O)nc2C)cc1 | > 100 µM | > 100 µM | > 100 µM | > 100 µM | > 100 µM | – | – | – | – |
| Cc1cc2c(=O)cc(-c3ccncc3)oc2c(C(N)=O)c1C | – | > 100 µM | > 100 µM | – | > 100 µM | > 100 µM | > 100 µM | – | – |
| N#Cc1cccc(C2SCc3nc4ccccc4n32)c1 (stereo unspecified) | > 100 µM | > 100 µM | – | > 100 µM | > 100 µM | > 100 µM | > 100 µM | > 100 µM | – |
| CCc1cccc(CC)c1NC1=CC(=O)C(=O)c2ccccc21 | 27.6 µM | 41.6 µM | 17.2 µM | 49.7 µM | 80.6 µM | 48.8 µM | – | > 100 µM | – |
| C#CC[C@]12CC(=O)CC[C@H]1CC1(C2)OCCO1 | > 100 µM | > 100 µM | > 100 µM | > 100 µM | > 100 µM | > 100 µM | – | > 100 µM | – |
| Cc1nc2ccccc2c(=O)n1/N=C(\N=Nc1ccc(Cl)cc1)c1ccc(N(C)C)cc1 | > 100 µM | > 100 µM | > 100 µM | > 100 µM | – | > 100 µM | 96.3 µM | – | – |
| C/C=C/C(C/C=C(\C)CO[Si](C)(C)C(C)(C)C)O[Si](C)(C)C(C)(C)C (stereo unspecified) | – | – | – | – | – | – | – | – | TGI (MDA-N): > 100 µM |
| CCC[CH2][Sn]1([CH2]CCC)[O]C(=O)c2cccnc2[S]1 | 3.83 µM | 13.7 µM | 15.4 µM | 14.5 µM | 5.76 µM | 2.98 µM | 3.5 µM | – | GI50 (DMS 114 small cell lung): 1.64 µM; GI50 (DMS 273 small cell lung): 3.38 µM; GI50 (LXFL 529 NSCLC): 1.33 µM; GI50 (M19-MEL melanoma): 3.87 µM; GI50 (DLD-1 colon): 3.94 µM; GI50 (XF 498 CNS): 2 µM; GI50 (SNB-78 CNS): 1.88 µM |
| CC(=O)O[C@@H]1[C@H]2O[C@H]2[C@H]2O[C@@]2(COC(=O)c2ccccc2)[C@H]1OC(C)=O | – | – | – | – | – | – | – | – | TGI (MDA-N): > 100 µM |
| BrC(/C=N/Nc1nnc(-c2ccccc2)c(-c2ccccc2)n1)C(Br)c1ccccc1 (stereo unspecified) | > 100 µM | > 100 µM | > 100 µM | > 100 µM | 78.1 µM | – | 82.7 µM | > 100 µM | – |
| O=C(/C=C/c1c[nH]c2ccccc12)c1ccccc1O | – | – | – | – | – | – | – | – | TGI (MDA-N): 17.5 µM |
| COc1cc(CC2c3cc(OC)c(OC)cc3CCN2C)c(C(=O)O)cc1OC (stereo unspecified) | > 100 µM | > 100 µM | > 100 µM | > 100 µM | > 100 µM | > 100 µM | > 100 µM | – | – |
| CC(=O)Nc1ccc(/C=C/C(=O)c2sc(-n3nc(-c4ccccc4)cc3-c3ccccc3)nc2C)cc1 | > 100 µM | > 100 µM | > 100 µM | > 100 µM | – | > 100 µM | – | > 100 µM | GI50 (RXF-631 renal): > 100 µM; GI50 (DMS 273 small cell lung): > 100 µM; GI50 (LXFL 529 NSCLC): > 100 µM; GI50 (M19-MEL melanoma): > 100 µM; GI50 (DLD-1 colon): > 100 µM |
| CS(=O)c1cc(=O)c2ccccc2s1 (stereo unspecified) | 9.87 µM | 19.5 µM | 11.9 µM | 5.6 µM | 27.6 µM | 2.9 µM | 7.57 µM | – | TGI (P388/ADR leukemia): > 22.2 µM; TGI (P388 leukemia): 6.79 µM; TGI (SN12K1 renal): 32.8 µM; TGI (MDA-N): 7.13 µM |
| CCCCP1(=O)C=CC(Cl)=C(C)C1 (stereo unspecified) | – | – | > 100 µM | > 100 µM | > 100 µM | > 100 µM | – | – | – |
| O=C(c1ccccc1)N1CCc2c([nH]c3ccccc23)C1 | 65.1 µM | > 100 µM | > 100 µM | > 100 µM | – | > 100 µM | 55 µM | > 100 µM | – |
| O=C(NC(=Nc1ccccc1)SCCSC(=Nc1ccccc1)NC(=O)c1ccccc1)c1ccccc1 | > 100 µM | > 100 µM | > 100 µM | > 100 µM | > 100 µM | > 100 µM | > 100 µM | – | – |
| O=C(N=Nc1c(O)[nH]c2c(Cl)cc(Cl)cc12)C(=O)Nc1cccc(C(F)(F)F)c1 | – | – | – | – | – | – | – | – | TGI (MDA-N): > 100 µM |
| Cc1c(Cl)ccc2[s+]snc12 | – | > 100 µM | > 100 µM | 62 µM | > 100 µM | 92 µM | 55.2 µM | > 100 µM | – |
| COc1cc(Br)c(C2OCCCO2)cc1OCc1ccccc1 | > 100 µM | > 100 µM | > 100 µM | > 100 µM | > 100 µM | > 100 µM | – | > 100 µM | – |
| CC(C)CC(=O)O[C@H]1C(=O)O[C@@H]2C[C@H]3[C@H](C)C(=O)C(O[C@@H]4O[C@H](CO)[C@@H](O)[C@H](O)[C@H]4O)=C[C@]3(C)[C@H]3[C@@H](O)[C@H](O)[C@]4(C(=O)O)OC[C@]32[C@@H]14 | – | – | – | – | – | – | – | – | TGI (MDA-N): > 100 µM |
| c1c[nH]c(CN2CCN(Cc3ncc[nH]3)CC2)n1 | – | – | – | – | – | – | – | – | TGI (MDA-N): > 100 µM |
| O=C1N(c2ccccc2)C2(O)C(=O)c3ccccc3C2(O)N1c1ccccc1 (stereo unspecified) | > 100 µM | > 100 µM | > 100 µM | > 100 µM | > 100 µM | > 100 µM | – | – | – |
| O=C(CC1(O)C(=O)Nc2ccc(Br)cc21)c1cccc([N+](=O)[O-])c1 (stereo unspecified) | – | > 100 µM | – | > 100 µM | > 100 µM | > 100 µM | – | > 100 µM | – |
| C/C(=N\NC(N)=S)c1ccc(Oc2ccccc2)cc1 | 17.9 µM | 20.7 µM | 47.2 µM | 16.9 µM | 47.7 µM | 17.5 µM | – | 43.7 µM | – |
| O=C(/C=C/c1ccccc1)c1ccccn1 | – | – | – | – | – | – | – | – | TGI (MDA-N): 30.5 µM and 67.4 µM |
| CC[C@H]1CNC(=O)CC1CC(=O)OC (stereo partly specified) | > 100 µM | > 100 µM | – | > 100 µM | > 100 µM | – | – | > 100 µM | – |
| Cc1cc(Br)ccc1N=NC1C(=O)ON=C1c1ccccc1 (stereo unspecified) | > 100 µM | > 100 µM | > 100 µM | > 100 µM | > 100 µM | > 100 µM | – | > 100 µM | – |
